The source of these data is US9359367B2, “Tetrahydroquinazolinone derivatives as PARP inhibitors” (Lupin Limited, priority 2012, dated 2016).

The target of the test is T1, PARP1 (Homo sapiens, UniProt P09874).
T1 construct: purchased BPS Bioscience
T1 sequence (P09874 whole entry): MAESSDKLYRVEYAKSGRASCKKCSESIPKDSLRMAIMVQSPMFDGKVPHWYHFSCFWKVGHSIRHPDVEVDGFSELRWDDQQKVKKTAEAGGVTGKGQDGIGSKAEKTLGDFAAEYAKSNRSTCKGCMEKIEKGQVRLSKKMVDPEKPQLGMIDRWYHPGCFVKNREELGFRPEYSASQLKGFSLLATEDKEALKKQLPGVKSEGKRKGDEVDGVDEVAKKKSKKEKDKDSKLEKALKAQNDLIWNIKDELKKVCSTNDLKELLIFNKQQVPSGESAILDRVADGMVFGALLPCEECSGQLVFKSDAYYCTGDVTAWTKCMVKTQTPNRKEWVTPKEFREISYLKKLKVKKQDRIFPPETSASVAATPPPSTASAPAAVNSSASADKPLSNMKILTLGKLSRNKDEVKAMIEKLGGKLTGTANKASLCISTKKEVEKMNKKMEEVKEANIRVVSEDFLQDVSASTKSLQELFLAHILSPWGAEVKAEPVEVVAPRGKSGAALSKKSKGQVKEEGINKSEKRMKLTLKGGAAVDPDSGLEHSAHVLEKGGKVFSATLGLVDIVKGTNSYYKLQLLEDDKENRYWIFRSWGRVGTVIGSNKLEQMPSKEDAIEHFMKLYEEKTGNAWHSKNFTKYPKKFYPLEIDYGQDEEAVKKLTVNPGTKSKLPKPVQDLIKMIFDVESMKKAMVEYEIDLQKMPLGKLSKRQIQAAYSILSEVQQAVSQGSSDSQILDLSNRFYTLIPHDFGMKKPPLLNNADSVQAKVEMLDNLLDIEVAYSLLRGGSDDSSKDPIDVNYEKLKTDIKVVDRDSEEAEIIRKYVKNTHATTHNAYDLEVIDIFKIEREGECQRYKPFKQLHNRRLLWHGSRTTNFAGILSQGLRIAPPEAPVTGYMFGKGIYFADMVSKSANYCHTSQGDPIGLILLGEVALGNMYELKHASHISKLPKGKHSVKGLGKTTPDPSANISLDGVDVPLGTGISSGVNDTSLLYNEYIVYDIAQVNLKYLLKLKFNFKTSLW
Description: PARP1 Biochemical Assay (BPS Bioscience kit, chemiluminescence). As to conditions: histone-coated plate, biotinilated NAD+, 25° C. for 60 min, luminescence, read-out: PARP 1 inhibition IC50. The method, then: The assay was performed using BPS Bioscience kit. The 96-well strip plate was coated with 50 μl of histone mixture and incubated at 4° C. overnight. Next day the wells were blocked by adding 100 μl of blocking buffer. The plate was washed and 25 μl of appropriate concentration of PARP1 (25-75 ng/well) was added in all the Test and Positive control wells. In Negative control wells enzyme was replaced with 25 μl of water. To it 5 μl each of 10×PARP assay buffer and activated DNA was added in all the wells (Test, Positive and Negative control wells). 10× concentration of test compounds were prepared and 5 μl test compounds were added respective wells. Reaction volume was made up to 45 μl by adding water to all the wells. Finally, 5 μl of 10×PARP assay mixture containing biotinilated NAD^+ was added in each well and the plate was incubated at ambient temperature (25° C.) for 60 min. After washing the plate 50 μl of Streptavidin-HRP was added in each well and incubated the plate at RT for 30 min. The plate was washed and the luminescence was read in PHERAStar plate reader after adding 100 μl of chemiluminescent substrate.
PARP inhibition was calculated using the following formula: % PARP inhibition=100−[(RLU test compound treated sample−RLU negative control)/(RLU Positive control−RLU negative control)×100]
IC50 values were calculated by plotting % inhibition against the respective concentrations of test compounds using GraphPad Prism 5.
On to `CNC(=O)c1ccc(N2CCN([C@@H]3C=C(c4nc5c(c(=O)[nH]4)CC4(CC5)CC4)CC3)CC2)cc1` [Compound 53, (S)—N-methyl-4-(4-(3-(4′-oxo-4′,5′,7′,8′-tetrahydro-3′H-spiro[cyclopropane-1,6′-quinazolin]-2′-yl)cyclopent-2-en-1-yl)piperazin-1-yl)benzamide], for which the half-inhibitory concentration (IC50) was 1 to 500 nM. Regarding `CNC(=O)c1ccc(N2CCN([C@H]3C=C(c4nc5c(c(=O)[nH]4)CC4(CC5)CC4)CC3)CC2)cc1` [Compound 54, (R)—N-methyl-4-(4-(3-(4′-oxo-4′,5′,7′,8′-tetrahydro-3′H-spiro[cyclopropane-1,6′-quinazolin]-2′-yl)cyclopent-2-en-1-yl)piperazin-1-yl)benzamide], the IC50 lay within 1 to 500 nM. Take `O=c1[nH]c(C2=C[C@@H](N3CCC(c4ccc(Cl)cc4)CC3)CC2)nc2c1CC1(CC2)CC1` [Compound 55, (S)-2′-(3-(4-(4-chlorophenyl)piperidin-1-yl)cyclopent-1-en-1-yl)-7′,8′-dihydro-3′H-spiro[cyclopropane-1,6′-quinazolin]-4′(5′H)-one]: the IC50 lay within 501 to 5000 nM. On to `O=c1[nH]c(C2=C[C@H](N3CCC(c4ccc(Cl)cc4)CC3)CC2)nc2c1CC1(CC2)CC1` [Compound 56, (R)-2′-(3-(4-(4-chlorophenyl)piperidin-1-yl)cyclopent-1-en-1-yl)-7′,8′-dihydro-3′H-spiro[cyclopropane-1,6′-quinazolin]-4′(5′H)-one], for which the IC50 was 1 to 500 nM. For `O=c1[nH]c(C2=C[C@H](N3CCN(c4ccc(Cl)cn4)CC3)CC2)nc2c1CC1(CC2)CC1` [Compound 57, (R)-2′-(3-(4-(5-chloropyridin-2-yl)piperazin-1-yl)cyclopent-1-en-1-yl)-7′,8′-dihydro-3′H-spiro[cyclopropane-1,6′-quinazolin]-4′(5′H)-one], the IC50 fell in the range of 1 to 500 nM. Take `O=c1[nH]c(C2=C[C@H](N3CCN(c4ccc(F)cn4)CC3)CC2)nc2c1CC1(CC2)CC1` [Compound 58, (R)-2′-(3-(4-(5-fluoropyridin-2-yl)piperazin-1-yl)cyclopent-1-en-1-yl)-7′,8′-dihydro-3′H-spiro[cyclopropane-1,6′-quinazolin]-4′(5′H)-one]: the IC50 fell in the range of 1 to 500 nM.

On to `O=c1[nH]c(C2=C[C@H](N3CCN(c4ccc(Cl)c(Cl)c4)CC3)CC2)nc2c1CC1(CC2)CC1` [Compound 59, (R)-2′-(3-(4-(3,4-dichlorophenyl)piperazin-1-yl)cyclopent-1-en-1-yl)-7′,8′-dihydro-3′H-spiro[cyclopropane-1,6′-quinazolin]-4′(5′H)-one], for which the IC50 is 5000 to 500000 nM. For `O=c1[nH]c(C2=C[C@H](N3CCN(c4cccc(Cl)c4)CC3)CC2)nc2c1CC1(CC2)CC1` [Compound 60, (R)-2′-(3-(4-(3-chlorophenyl)piperazin-1-yl)cyclopent-1-en-1-yl)-7′,8′-dihydro-3′H-spiro[cyclopropane-1,6′-quinazolin]-4′(5′H)-one] the value was 501 to 5000 nM; for `O=c1[nH]c(C2=C[C@H](N3CCN(c4ccc(F)cc4F)CC3)CC2)nc2c1CC1(CC2)CC1` [Compound 61, (R)-2′-(3-(4-(2,4-difluorophenyl)piperazin-1-yl)cyclopent-1-en-1-yl)-7′,8′-dihydro-3′H-spiro[cyclopropane-1,6′-quinazolin]-4′(5′H)-one], 1 to 500 nM. For `O=c1[nH]c(C2=C[C@H](N3CCN(c4ccc(F)c(F)c4)CC3)CC2)nc2c1CC1(CC2)CC1` [Compound 62, (R)-2′-(3-(4-(3,4-difluorophenyl)piperazin-1-yl)cyclopent-1-en-1-yl)-7′,8′-dihydro-3′H-spiro[cyclopropane-1,6′-quinazolin]-4′(5′H)-one] the value was 1 to 500 nM.

Regarding `O=c1[nH]c(C2=C[C@H](N3CCN(c4ccc(Cl)cc4F)CC3)CC2)nc2c1CC1(CC2)CC1` [Compound 63, (R)-2′-(3-(4-(4-chloro-2-fluorophenyl)piperazin-1-yl)cyclopent-1-en-1-yl)-7′,8′-dihydro-3′H-spiro[cyclopropane-1,6′-quinazolin]-4′(5′H)-one], the IC50 lay within 1 to 500 nM. For `O=c1[nH]c(C2=C[C@H](N3CCN(c4ccc(F)c(Cl)c4)CC3)CC2)nc2c1CC1(CC2)CC1` [Compound 64, (R)-2′-(3-(4-(3-chloro-4-fluorophenyl)piperazin-1-yl)cyclopent-1-en-1-yl)-7′,8′-dihydro-3′H-spiro[cyclopropane-1,6′-quinazolin]-4′(5′H)-one] the value was 501 to 5000 nM; for `O=c1[nH]c(C2=C[C@H](N3CCN(c4ccc(Cl)cc4Cl)CC3)CC2)nc2c1CC1(CC2)CC1` [Compound 65, (R)-2′-(3-(4-(2,4-dichlorophenyl)piperazin-1-yl)cyclopent-1-en-1-yl)-7′,8′-dihydro-3′H-spiro[cyclopropane-1,6′-quinazolin]-4′(5′H)-one], 1 to 500 nM; for `CC1(C)CN(c2ccc(F)cc2)CCN1[C@H]1C=C(c2nc3c(c(=O)[nH]2)CC2(CC3)CC2)CC1` [Compound 67, (R)-2′-(3-(4-(4-fluorophenyl)-2,2-dimethylpiperazin-1-yl)cyclopent-1-en-1-yl)-7′,8′-dihydro-3′H-spiro[cyclopropane-1,6′-quinazolin]-4′(5′H)-one], 5000 to 500000 nM. In the case of `CNC(=O)c1ccc(N2CCN([C@H]3C=C(c4nc5c(c(=O)[nH]4)CC4(CC5)CC4)CC3)CC2)c(F)c1` [Compound 68, (R)-3-fluoro-N-methyl-4-(4-(3-(4′-oxo-4′,5′,7′,8′-tetrahydro-3′H-spiro[cyclopropane-1,6′-quinazolin]-2′-yl)cyclopent-2-en-1-yl)piperazin-1-yl)benzamide], the IC50 fell in the range of 1 to 500 nM. For the molecule `CN(C)C(=O)c1ccc(N2CCN([C@H]3C=C(c4nc5c(c(=O)[nH]4)CC4(CC5)CC4)CC3)CC2)cc1` [Compound 69, (R)—N,N-dimethyl-4-(4-(3-(4′-oxo-4′,5′,7′,8′-tetrahydro-3′H-spiro[cyclopropane-1,6′-quinazolin]-2′-yl)cyclopent-2-en-1-yl)piperazin-1-yl)benzamide], the IC50 lay in the range of 5000 to 500000 nM.

As to `CC1(C)CC(c2nc3c(c(=O)[nH]2)CC2(CC3)CC2)=C[C@H]1N1CCN(c2ccc(F)cc2)CC1` [Compound 70, (R)-2′-(3-(4-(4-fluorophenyl)piperazin-1-yl)-4,4-dimethylcyclopent-1-en-1-yl)-7′,8′-dihydro-3′H-spiro[cyclopropane-1,6′-quinazolin]-4′(5′H)-one], the IC50 lay within 5000 to 500000 nM. For `CC1(C)CC(c2nc3c(c(=O)[nH]2)CC2(CC3)CC2)=C[C@@H]1N1CCN(c2ccc(F)cc2)CC1` [Compound 71, (S)-2′-(3-(4-(4-fluorophenyl)piperazin-1-yl)-4,4-dimethylcyclopent-1-en-1-yl)-7′,8′-dihydro-3′H-spiro[cyclopropane-1,6′-quinazolin]-4′(5′H)-one] the value was 5000 to 500000 nM; for `CNC(=O)c1ccc(C2=CCN([C@H]3C=C(c4nc5c(c(=O)[nH]4)CC4(CC5)CC4)CC3)CC2)cc1` [Compound 72, (R)—N-methyl-4-(1-(3-(4′-oxo-4′,5′,7′,8′-tetrahydro-3′H-spiro[cyclopropane-1,6′-quinazolin]-2′-yl)cyclopent-2-en-1-yl)-1,2,3,6-tetrahydropyridin-4-yl)benzamide], 1 to 500 nM; for `Cc1ccc(N2CCN([C@H]3C=C(c4nc5c(c(=O)[nH]4)CC4(CC5)CC4)CC3)CC2)cc1` [Compound 73, (R)-2′-(3-(4-(p-tolyl)piperazin-1-yl)cyclopent-1-en-1-yl)-7′,8′-dihydro-3′H-spiro[cyclopropane-1,6′-quinazolin]-4′(5′H)-one], 1 to 500 nM. With `COc1ccc(N2CCN([C@H]3C=C(c4nc5c(c(=O)[nH]4)CC4(CC5)CC4)CC3)CC2)cc1` [Compound 74, (R)-2′-(3-(4-(4-methoxyphenyl)piperazin-1-yl)cyclopent-1-en-1-yl)-7′,8′-dihydro-3′H-spiro[cyclopropane-1,6′-quinazolin]-4′(5′H)-one], the IC50 fell in the range of 1 to 500 nM. For `O=c1[nH]c(C2=C[C@H](N3CCC(c4ccc(F)cc4)CC3)CC2)nc2c1CC1(CC2)CC1` [Compound 75, (R)-2′-(3-(4-(4-fluorophenyl)piperidin-1-yl)cyclopent-1-en-1-yl)-7′,8′-dihydro-3′H-spiro[cyclopropane-1,6′-quinazolin]-4′(5′H)-one] the value was 1 to 500 nM; for `CNC(=O)c1ccc(N2CCN([C@H]3C=C(c4nc5c(c(=O)[nH]4)CC4(CC5)CC4)CC3)CC2)nc1` [Compound 76, (R)—N-methyl-6-(4-(3-(4′-oxo-4′,5′,7′,8′-tetrahydro-3′H-spiro[cyclopropane-1,6′-quinazolin]-2′-yl)cyclopent-2-en-1-yl)piperazin-1-yl)nicotinamide], 1 to 500 nM.

For `Cc1ccc(C2CCN([C@H]3C=C(c4nc5c(c(=O)[nH]4)CC4(CC5)CC4)CC3)CC2)cc1` [Compound 77, (R)-2′-(3-(4-(p-tolyl)piperidin-1-yl)cyclopent-1-en-1-yl)-7′,8′-dihydro-3′H-spiro[cyclopropane-1,6′-quinazolin]-4′(5′H)-one], the IC50 lay within 1 to 500 nM. In the case of `O=c1[nH]c(C2=C[C@H](N3CCN(c4cccc(F)c4)CC3)CC2)nc2c1CC1(CC2)CC1` [Compound 78, (R)-2′-(3-(4-(3-fluorophenyl)piperazin-1-yl)cyclopent-1-en-1-yl)-7′,8′-dihydro-3′H-spiro[cyclopropane-1,6′-quinazolin]-4′(5′H)-one], the IC50 fell in the range of 1 to 500 nM.

By IC50 is commonly meant the midpoint of a concentration-inhibition curve.
